Legend:
NET = conditions: read-out: NET Ki; mean ± SEM; cited from earlier work
Caco-2 monolayers = experiment: Bidirectional transport and verapamil inhibition across Caco-2 monolayers; assay type: in vitro ADME
human CYP2D6 = human CYP2D6 (Homo sapiens, UniProt P10635); experiment: Metabolism by recombinant human CYP2D6 Supersomes; assay type: in vitro ADME
[1] = Pharmacokinetics and brain uptake after i.v. dosing; assay type: in vivo, male Sprague–Dawley rats; conditions: for AUC0–1440 min (plasma): noncompartmental analysis
[2] = tested on: pooled male Sprague–Dawley rat liver microsomes; experiment: Metabolism in pooled male rat liver microsomes; assay type: in vitro ADME
rat CYP3A1 = target: T1, rat CYP3A1 (Rattus norvegicus, UniProt P04800); experiment: Metabolism by recombinant rat CYP3A1 Supersomes; assay type: in vitro ADME
T1 sequence (P04800 1-504): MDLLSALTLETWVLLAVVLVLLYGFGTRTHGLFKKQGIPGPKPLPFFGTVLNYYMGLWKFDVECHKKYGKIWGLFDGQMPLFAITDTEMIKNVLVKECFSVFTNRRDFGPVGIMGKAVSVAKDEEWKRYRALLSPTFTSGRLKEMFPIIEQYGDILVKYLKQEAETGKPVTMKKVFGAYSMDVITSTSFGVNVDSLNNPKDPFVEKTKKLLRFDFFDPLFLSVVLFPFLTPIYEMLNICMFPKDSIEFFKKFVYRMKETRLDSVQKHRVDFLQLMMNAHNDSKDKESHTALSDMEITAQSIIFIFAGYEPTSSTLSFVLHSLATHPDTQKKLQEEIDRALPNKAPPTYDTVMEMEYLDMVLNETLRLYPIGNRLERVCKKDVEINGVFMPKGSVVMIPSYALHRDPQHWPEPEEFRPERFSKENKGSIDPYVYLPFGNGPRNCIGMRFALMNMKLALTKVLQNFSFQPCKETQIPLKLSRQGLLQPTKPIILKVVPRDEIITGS

human CYP2E1 = human CYP2E1 (Homo sapiens, UniProt P05181); experiment: Metabolism by recombinant human CYP2E1 Supersomes; assay type: in vitro ADME
SERT = conditions: read-out: SERT Ki; mean ± SEM; cited from earlier work
DAT = conditions: read-out: DAT Ki; mean ± SEM; cited from earlier work
human CYP2C19 = human CYP2C19 (Homo sapiens, UniProt P33261); experiment: Metabolism by recombinant human CYP2C19 Supersomes; assay type: in vitro ADME
rat CYP2C11 = target: T2, rat CYP2C11 (Rattus norvegicus, UniProt P08683); experiment: Metabolism by recombinant rat CYP2C11 Supersomes; assay type: in vitro ADME
T2 sequence (P08683 1-500): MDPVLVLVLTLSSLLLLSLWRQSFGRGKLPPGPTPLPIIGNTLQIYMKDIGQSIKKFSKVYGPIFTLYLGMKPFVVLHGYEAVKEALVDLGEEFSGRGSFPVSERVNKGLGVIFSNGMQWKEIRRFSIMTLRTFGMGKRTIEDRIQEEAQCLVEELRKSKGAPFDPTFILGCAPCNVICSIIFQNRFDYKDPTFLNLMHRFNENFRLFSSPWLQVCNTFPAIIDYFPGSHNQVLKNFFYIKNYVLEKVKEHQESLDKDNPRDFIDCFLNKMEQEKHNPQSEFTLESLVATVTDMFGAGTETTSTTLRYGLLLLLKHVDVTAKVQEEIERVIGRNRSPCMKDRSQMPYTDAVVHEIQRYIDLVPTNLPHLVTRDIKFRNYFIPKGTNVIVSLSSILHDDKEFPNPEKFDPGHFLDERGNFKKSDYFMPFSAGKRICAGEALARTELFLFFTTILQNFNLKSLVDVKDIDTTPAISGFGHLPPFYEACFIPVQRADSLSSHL

rat CYP1A2 = target: T3, rat CYP1A2 (Rattus norvegicus, UniProt P04799); experiment: Metabolism by recombinant rat CYP1A2 Supersomes; assay type: in vitro ADME
T3 sequence (P04799 1-513): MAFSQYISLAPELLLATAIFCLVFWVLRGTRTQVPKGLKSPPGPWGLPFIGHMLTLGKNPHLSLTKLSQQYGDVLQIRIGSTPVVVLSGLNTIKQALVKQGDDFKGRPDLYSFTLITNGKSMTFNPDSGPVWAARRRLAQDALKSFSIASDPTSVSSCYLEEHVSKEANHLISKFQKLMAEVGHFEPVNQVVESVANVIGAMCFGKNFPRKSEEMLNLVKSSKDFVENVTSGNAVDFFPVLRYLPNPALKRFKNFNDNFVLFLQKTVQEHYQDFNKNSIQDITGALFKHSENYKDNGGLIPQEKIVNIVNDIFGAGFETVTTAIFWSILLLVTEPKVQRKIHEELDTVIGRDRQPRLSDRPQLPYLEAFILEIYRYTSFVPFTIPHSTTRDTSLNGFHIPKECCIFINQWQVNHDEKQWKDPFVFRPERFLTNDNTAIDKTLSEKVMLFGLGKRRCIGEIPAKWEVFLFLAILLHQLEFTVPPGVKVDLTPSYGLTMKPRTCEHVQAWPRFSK

muscarinic M1 receptors = conditions: read-out: M1 Ki; mean ± SEM; cited from earlier work
DA uptake = conditions: read-out: DA Uptake IC50; mean ± SEM; cited from earlier work
[3] = 0.1 mM, absence of verapamil, mean ± SD (n = 3)
[4] = population PK estimate (% CV), i.v. 5 and 10 mg/kg combined, n = 54 rats

Sequence of human CYP2E1 (P05181 whole entry): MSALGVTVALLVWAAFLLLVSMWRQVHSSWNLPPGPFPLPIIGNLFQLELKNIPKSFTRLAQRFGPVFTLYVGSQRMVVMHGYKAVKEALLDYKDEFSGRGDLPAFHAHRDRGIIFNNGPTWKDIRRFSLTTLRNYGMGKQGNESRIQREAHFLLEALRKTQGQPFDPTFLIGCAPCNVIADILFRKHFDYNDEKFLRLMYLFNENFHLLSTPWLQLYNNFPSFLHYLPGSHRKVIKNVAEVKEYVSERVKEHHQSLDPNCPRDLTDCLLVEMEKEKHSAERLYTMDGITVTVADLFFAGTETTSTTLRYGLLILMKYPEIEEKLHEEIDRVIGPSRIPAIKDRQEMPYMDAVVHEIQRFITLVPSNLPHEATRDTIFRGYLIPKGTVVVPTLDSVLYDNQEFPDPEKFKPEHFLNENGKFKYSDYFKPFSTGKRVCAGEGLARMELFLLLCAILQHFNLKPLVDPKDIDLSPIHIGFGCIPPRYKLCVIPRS
Sequence of human CYP2D6 (P10635 whole entry): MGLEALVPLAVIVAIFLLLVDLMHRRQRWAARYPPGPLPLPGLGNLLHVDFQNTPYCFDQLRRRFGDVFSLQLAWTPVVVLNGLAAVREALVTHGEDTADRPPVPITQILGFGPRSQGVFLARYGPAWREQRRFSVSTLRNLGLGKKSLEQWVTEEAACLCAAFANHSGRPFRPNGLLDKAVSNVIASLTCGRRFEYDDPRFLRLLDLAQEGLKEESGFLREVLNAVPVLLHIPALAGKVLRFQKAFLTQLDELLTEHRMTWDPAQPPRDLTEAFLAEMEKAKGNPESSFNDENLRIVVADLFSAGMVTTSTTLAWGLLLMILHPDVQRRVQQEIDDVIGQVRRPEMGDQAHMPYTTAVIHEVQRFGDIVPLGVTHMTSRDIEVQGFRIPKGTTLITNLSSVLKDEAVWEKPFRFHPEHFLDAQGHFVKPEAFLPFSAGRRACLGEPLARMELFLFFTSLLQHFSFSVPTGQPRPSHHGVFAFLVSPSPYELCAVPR
Sequence of human CYP2C19 (P33261 whole entry): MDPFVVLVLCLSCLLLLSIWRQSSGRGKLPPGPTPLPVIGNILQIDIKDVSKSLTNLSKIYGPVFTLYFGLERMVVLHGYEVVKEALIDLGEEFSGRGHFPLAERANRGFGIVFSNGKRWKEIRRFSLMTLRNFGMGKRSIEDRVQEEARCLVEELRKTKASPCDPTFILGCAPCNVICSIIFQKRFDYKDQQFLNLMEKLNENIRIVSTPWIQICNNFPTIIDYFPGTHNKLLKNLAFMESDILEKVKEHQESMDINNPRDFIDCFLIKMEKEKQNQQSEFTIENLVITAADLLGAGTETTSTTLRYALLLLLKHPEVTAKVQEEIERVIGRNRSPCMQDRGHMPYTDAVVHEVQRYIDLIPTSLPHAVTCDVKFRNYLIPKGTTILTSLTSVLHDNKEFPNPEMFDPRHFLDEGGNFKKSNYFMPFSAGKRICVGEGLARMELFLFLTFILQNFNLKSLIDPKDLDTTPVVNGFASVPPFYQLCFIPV

In the case of `CC(C)[C@@H](N)CN1C2CCC1CC(OC(c1ccc(F)cc1)c1ccc(F)cc1)C2` (stereo partly drawn) [GA2-50, N-((R)-2″-amino-3″-methyl-n-butyl)-3α-[(bis-4′-fluorophenyl)methoxy]tropane], the Ki (NET) is given as 2130 ± 160 nM, the “Permeability relative to JHW 025” value (Caco-2 monolayers) is given as greater than 4 fold and the “Efflux Ratio” value (Caco-2 monolayers; 0.1 mM, Papp(B-A)/Papp(A-B)) is given as 8.3. For the same compound, the “Papp A-B” value (Caco-2 monolayers; [3]) was 1.37 ± 0.08 × 10^−6 cm/s, the “Papp B-A” value (Caco-2 monolayers; [3]) was 11.36 ± 1.41 × 10^−6 cm/s and the “Enhancement ratio of A-B transport by verapamil” value (Caco-2 monolayers; verapamil 200 μM) was 3.4. The “Intrinsic Clearance” value (human CYP2D6; Human CYP 2D6 50 pmol/mL, 4 μM) was 0.15 ± 0.02 (b) microliters per minute per picomole of P450, the “Substrate disappearance after 60 min incubation vs control” value (shortened to “Substrate disappearance … vs control”) (human CYP2D6; human CYP2D6, 10 μM, 50 pmol/mL P450, p < 0.05) was “statistically significant disappearance” and the “brain-to-plasma partition coefficient (Ri)” value ([1]; 5 mg/kg i.v., AUC0–1440 min brain/plasma) was 10.1. For the same compound, the “AUC0–1440 min (plasma)” value ([1]; 5 mg/kg i.v.) was 141.8 µg·min/mL, the “maximal total brain concentration” value ([1]; 10 mg/kg i.v.) was “approximately 5 μg/g” and the “brain-to-plasma partition coefficient (Ri)” value ([1]; 10 mg/kg i.v., AUC0–1440 min brain/plasma) was 9.6. For the same compound, the “AUC0–1440 min (plasma)” value ([1]; 10 mg/kg i.v.) was 258.0 µg·min/mL, the Vss ([1]; Table 4, secondary parameter from NONMEM empirical Bayes estimates, i.v., rats) was 622 mL/min/kg and the signs of toxicity ([1]; i.v. 5 or 10 mg/kg) was “did not show any signs of toxicity”. The “brain-to-plasma partition coefficient (Ri)” value ([1]; overall, dose not specified) was ~ 10, the CL [1, 4] was 1.34 (9.3) L/h/kg and the Q [1, 4] was 7.8 (19.9) L/h/kg. For the same compound, the Vc [1, 4] was 8.09 (13.6) L/kg, the Vp [1, 4] was 27.9 (10.5) L/kg and the “t1/2 (elimination half-life)” value ([1]; secondary parameter from NONMEM empirical Bayes estimates, i.v., rats) was 19.2 h. For the same compound, the “Intrinsic Clearance” value ([2]; Pooled male RLM 0.8 mg/mL, 4 μM, mean ± SD n = 3) was 5.96 ± 0.56 microliters per minute per milligram of protein, the “Intrinsic clearance in pooled male RLM relative to HLM” value ([2]; higher in rat than in human liver microsomes) was 1.9 fold and the “Intrinsic clearance, fold lower than 4′,4″-diCl BZT” value ([2]; pooled male rat liver microsomes, comparator values ref 26) was 3.6 fold. For the same compound, the “Intrinsic Clearance” value (rat CYP3A1; Rat CYP 3A1 50 pmol/mL, 4 μM) was 0.09 ± 0.02 (c,d) microliters per minute per picomole of P450, the “Substrate disappearance … vs control” value (rat CYP3A1; rat CYP3A1, 10 μM, 50 pmol/mL P450, p < 0.05) was “statistically significant disappearance” and the “Intrinsic Clearance” value (human CYP2E1; Human CYP 2E1 50 pmol/mL, 4 μM) was 0.09 ± 0.02 (c,d) microliters per minute per picomole of P450. The “Substrate disappearance … vs control” value (human CYP2E1; human CYP2E1, 10 μM, 50 pmol/mL P450, p < 0.05) was “statistically significant disappearance”, the Ki (SERT) was 3870 ± 135 nM and the Ki (DAT) was 56.4 ± 9.6 nM. The “Intrinsic Clearance” value (human CYP2C19; Human CYP 2C19 50 pmol/mL, 4 μM) was 0.10 ± 0.01 (c) microliters per minute per picomole of P450, the “Substrate disappearance … vs control” value (human CYP2C19; human CYP2C19, 10 μM, 50 pmol/mL P450, p < 0.05) was “statistically significant disappearance” and the “Intrinsic Clearance” value (rat CYP2C11; Rat CYP 2C11 50 pmol/mL, 4 μM) was 0.23 ± 0.01 (a) microliters per minute per picomole of P450. The “Substrate disappearance … vs control” value (rat CYP2C11; rat CYP2C11, 10 μM, 50 pmol/mL P450, p < 0.05) was “statistically significant disappearance”, the “Intrinsic clearance, fold lower than 4′,4″-diCl BZT” value (rat CYP2C11; rat CYP2C11, comparator values ref 26) was 6.3 fold and the “Intrinsic Clearance” value (rat CYP1A2; Rat CYP 1A2 50 pmol/mL, 4 μM) was 0.06 ± 0.01 (d) microliters per minute per picomole of P450. The “Substrate disappearance … vs control” value (rat CYP1A2; rat CYP1A2, 10 μM, 50 pmol/mL P450, p < 0.05) was “statistically significant disappearance”, the Ki (muscarinic M1 receptors) was 4020 ± 592 nM and the IC50 (DA uptake) was 20.7 ± 2.85 nM.

Source: PMC2673089 (Journal of pharmaceutical sciences, 2008)
